{"source": "paper PMC4198181", "about": "“Gold(I) Complexes of 9-Deazahypoxanthine as Selective Antitumor and Anti-Inflammatory Agents” (PLoS ONE, 2014)", "test_system": "polymorphonuclear cells infiltration in hind paw tissue", "assay": "Ex vivo histological evaluation of hind paw tissue (HE staining, PMN infiltration)", "assay_type": "in vivo, Wistar-SPF rats", "details": "6 h after carrageenan, Indomethacin 5 mg/kg", "description": "The carrageenan-induced hind paw edema model was used for the determination of anti-inflammatory activity. Animals were i.p. pretreated with complexes 2, 4, and 5 (the dosages of the individual complexes were adjusted to contain the same amount of gold as in 10 mg/kg dose of Auranofin), Indomethacin (5 mg/kg), or 25% DMSO (v/v in water) 30 min prior to the injection of 1% λ-carrageenan solution (50 µL) into the plantar side of right hind paws of the rats. The paw volume was measured immediately after the carrageenan injection (this value was set-up as baseline value for the hind paw volume) and during the next 6 h after the administration of the edematogenic agent using a plethysmometer (model 7159, Ugo Basile, Varese, Italy). The degree of swelling was evaluated as a percentage of the change of the volume of the right hind paw after the carrageenan treatment from the baseline volume. A non-steroidal anti-inflammatory drug Indomethacin was used as a positive control and the obtained data were also compared with the previously reported profile of antiedematous activity for Auranofin [38]. After 6 h, the animals were sacrificed and the edematous feet were dissected, the tissue from the plantar parts was extracted, fixed and stained by a standard hematoxylin/eosin (HE) staining for cytological evaluation of polymorphonuclear cells infiltration.\nTo assess the tissue consequences connected with the reduction of inflammation caused by the tested compounds after the intraplantar injection of carrageenan, the histopathological observations were made on the tissue sections obtained from the laboratory animals after the plethysmometric experiments were finished. All animals were sacrificed by cervical dislocation, and immediately after that, the tissue samples were taken from the plantar area of hind paws. The histopathological changes in tissues, stained by the standard HE staining (see Figure 10), were evaluated by the presence of the inflammation infiltrate, which contained mainly neutrophils (polymorphonuclear cells - PMN).", "data": [{"smiles": "COc1ccc2c(c1)c(CC(=O)O)c(C)n2C(=O)c1ccc(Cl)cc1", "note": "[Indomethacin, reference compound]", "values": [{"measurement": "PMN (neutrophil) infiltrate in hind paw tissue sections", "result": "mainly scarce and diffuse"}]}]}
